Measured values published in paper PMC5974752, “Bax/Tubulin/Epithelial-Mesenchymal Pathways Determine the Efficacy of Silybin Analog HM015k in Colorectal Cancer Cell Growth and Metastasis” (Frontiers in Pharmacology, 2018).

What was measured:
Type in all cases: cell-based, human
PARP = experiment: Western blot in HCT116 cells (nuclear fraction); details: 4 μM, vs control
Protocol: HCT116 cells were lysed to obtain cytoplasmic and nuclear protein fractions, according to the protocol used in previous publications (Alhadidi and Shah, [2017]). Briefly, the cells were seeded in and incubated with 15k for overnight at 4μM. The cells were washed using ice-cold PBS and scraped using a cell scraper and collected in 15ml tubes. The cells were centrifuged and the PBS was discarded and replaced with 400 μl of buffer A (10 mM HEPES, pH 7.9, 0.1 mM EDTA, 0.1 mM EGTA, 10 mM KCl, 1 mM dithiothreitol, and 0.5 mM phenylmethylsulfonyl fluoride) in each tube. The cells were allowed to swell under in the buffer for 15 min on ice. Subsequently, 0.1% Nonidet P-40 was added to each suspension for 1 min to disturb the plasma membrane. The nuclei were precipitated by centrifugation at 13,000 rpm for 1 min at 4°C. The cytoplasmic proteins were collected in the supernatant and stored at −80°C. Two hundred μl of Buffer B (20 mM HEPES, pH 7.9, 1 mM EDTA, 1 mM EGTA, 400 mM NaCl, 1 mM dithiothreitol, and 1 mM phenylmethylsulfonyl fluoride) was added to the pellets and left for 30 min on ice with periodic mixing. […] The bicinchoninic acid (BCA) quantification assay was used to determine the concentration of protein in the cell extracts. […] Finally, proteins were quantified using the image J software. Data were calculated as ratios to β-actin.

HCT116 cells [1] = experiment: Detection of reactive oxygen species (H2DCF-DA); details: 1, 2 and 4 μM, 24 and 48 h, vs vehicle
Protocol: H2DCF-DA was used as previously described (Amawi et al., [2017c]). The cells that had been incubated with the test compound were further incubated with 3 μM of the H2DCF-DA working solution for 30 min at 37°C. The fluorescence level of oxidized DCF (excitation at 485 nm and emission at 535 nm) was detected under EVOS digital fluorescent microscope at 40x.

caspases 3 and 7 = experiment: IncuCyte caspase-3/7 real time apoptosis
Protocol: For real time quantification of apoptosis induction, the fluorescent Caspase 3/7 and Annexin V red reagents, with an excitation maximum of 500 and 593 nm and an emission maximum of 530 and 614 nm, respectively, were used. The HCT116 cells were seeded at a density of 1,000 cell/well and allowed to grow overnight. The next day, compound 15k at 0, 2, 4, and 8μM was prepared and added, directly followed by the caspase 3/7 reagent at final concentration of 5μM or annexin V red reagent in final dilution of 1: 200. The cells were then incubated in IncuCyte Zoom live cell imaging and pictures were taken every 2 h for up to 50 h and analyzed using the integrated software. The IncuCyte® Caspase-3/7 apoptosis assay reagent couples the activated caspase-3/7 recognition motif (DEVD) to NucView™ 488, a DNA intercalating dye to enable quantification of apoptosis over time. Caspase-3/7 assay reagent is non-perturbing to cell growth and morphology. When added to cell culture medium, this inert, non-fluorescent substrate crosses the cell membrane, where it is cleaved by activated caspase-3/7, resulting in the release of the DNA dye and green fluorescent staining of nuclear DNA.

HCT116 = experiment: Cell cycle analysis (PI, flow cytometry); details: 0, 2 or 4 μM, 12 h, data not shown
Protocol: Cell cycle analysis was performed as described previously (Pozarowski and Darzynkiewicz, [2004]). Briefly, a 6 well plate was used for the seeding of HCT116 at 1 × 10^6 cells/well. The next day, 15j and 15k (0, 2, or 4 μM) were added and incubated with the seeded cells. After 12 h, the cells were trypsinzed with 0.25% trypsin, 2.21 mM EDTA, 1X, washed, counted and resuspended in 0.5 ml of ice cold PBS. PI stain was added to each suspension for at least 15 min to stain the DNA. The cell cycle analysis and cell distribution for each phase was measured using a BD Accuri™ C6 flow cytometer (BD Biosciences, Becton-Dickinson, San Jose, CA, USA) and analyzed using FCS express 5 plus De Novo software (Glendale, CA, USA).

[2] = test system: CRC cell lines (HCT116, LOVO, and S1); experiment: MTT assay, CRC cell lines together; details: MTT
Protocol: The 3-(4,5-dimethylthiazol-2-yl)-2,5-diphenyltetrazolium bromide (MTT) assay was used to determine the sensitivity of the different CRC cells to the novel silybin derivatives (Hussein et al., [2017]; Manivannan et al., [2017]). The cells were seeded at a density of 4,000–5,000 cells/well in 96 well plates and incubated with serial dilutions of the compounds (0, 0.1, 0.3, 1, 3, 10, 30, and 100 μM). The MTT dye (4 mg/ml) was added after 72 h of incubation and incubated with the cells for an additional 4 h at 37°C. Following incubation, the media was discarded and the formazan crystals were dissolved by adding 100 μL of DMSO to each well. A DTX 880 multimode detector (Beckman Coulter Life, Indianapolis IN, USA) was used to determine the absorbance readings at a wavelength of 570 nm. The IC50 values were determined based on 3 separate experiments, with each experiment done in triplicate. The selectivity of the compounds was determined by comparing their cytotoxicity for CRC to normal epithelial cell lines (CHO, and CRL1459).

HCT116 cells [3] = experiment: IncuCyte Cytotox green real time cell death
Protocol: For real time quantification of cell death, the Incucyte Cytotox green reagent was used. […] The plasma membrane integrity is decreased in unhealthy cells, allowing entry of the IncuCyte Cytotox reagent, yielding a 100- to 1,000-fold increase in fluorescence upon binding to deoxyribonucleic acid (DNA) (at an excitation maximum of 491 nm and an emission maximum of 509 nm). The HCT116 cells were seeded at a density of 1,000 cell/well and allowed to grow overnight. […] The cells were then incubated in a IncuCyte Zoom live cell imaging apparatus and pictures were taken every 2 h for up to 50 h.The IncuCyte® integrated analysis software was used to quantify the fluorescent objects and minimize the background fluorescence (IncuCyte ZOOM version 2016A, Essen BioScience, Ann Arbor, MI 48108, USA).

For `O=C(/C=C/c1cccc(OCc2ccccc2)c1)c1ccc(O)cc1` [Compound 15k], the “total PARP” value (PARP) was “significantly reduced”, the “ROS formation (oxidized DCF fluorescence)” value (HCT116 cells [1]) was “significantly increased ROS formation” and the “incubation time to induce apoptosis (caspase 3/7)” value (caspases 3 and 7; 2 μM) was “≈ 24 h”. The “incubation time to induce apoptosis (caspase 3/7)” value (caspases 3 and 7; 4 and 8 μM) was “≈ 10 h”, the “effect on the cell cycle” value (HCT116) was “significant concentration-dependent increase in the number of cells in the G2 and S phases” and the IC50 ([2]; Homo sapiens, range over HCT116, S1 and LOVO, read-out: IC50 in the CRC cells) was 1000 to 2000 nM. For the same compound, the “selectivity, CRC cells compared to normal cells” value ([2]; vs CRL1459 and CHO) was “selectively cytotoxic”, the “time of significant difference in the number of dead cells” value (HCT116 cells [3]; 2 μM, vs vehicle) was 24 h and the “time of significant increase in cell death” value (HCT116 cells [3]; 4 and 8 μM, vs control cells) was 12 h.
